From patent EP0696280B1, “SUBSTITUTED PYRROLIDIN-3-YL-ALKYL-PIPERIDINES USEFUL AS TACHYKININ ANTAGONISTS” (MERRELL PHARMACEUTICALS INC., priority 1993, dated 1994)
Counter-ions that a name gives are not always drawn. Like-named read-outs stand apart in the source and are kept apart here.

Experiments:
NK-3 receptor = target: T1, NK-3 receptor (Cavia porcellus, UniProt P30098); assay: Antagonism of iodinated tachykinin binding to NK-3 receptor (125I-Bolton Hunter labeled Lys-4 eledoisin, guinea pig cerebral cortex membranes)
T1 construct: freshly collected guinea pig cerebral cortex; from tissue; host or cells: guinea pig cerebral cortex membranes
T1 sequence (P30098 1-440): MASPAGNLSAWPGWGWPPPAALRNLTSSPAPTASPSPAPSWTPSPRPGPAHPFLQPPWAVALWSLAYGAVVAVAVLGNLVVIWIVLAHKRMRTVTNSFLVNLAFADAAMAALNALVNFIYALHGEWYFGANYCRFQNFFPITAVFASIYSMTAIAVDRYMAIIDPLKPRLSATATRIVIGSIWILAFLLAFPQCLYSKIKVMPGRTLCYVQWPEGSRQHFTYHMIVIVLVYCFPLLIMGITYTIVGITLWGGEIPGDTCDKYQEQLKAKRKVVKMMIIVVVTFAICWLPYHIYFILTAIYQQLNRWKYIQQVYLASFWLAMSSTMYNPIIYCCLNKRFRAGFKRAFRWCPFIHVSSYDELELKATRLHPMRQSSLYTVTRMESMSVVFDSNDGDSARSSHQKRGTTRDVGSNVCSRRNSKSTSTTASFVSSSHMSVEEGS
Procedure: The NK1 receptor affinity of proposed tachykinin antagonists was devaluated in guinea pig lungs (Keystone Biologicals, Cleveland, OH), affinity for the NK2 receptor evaluated in HSKR-1 cells (which are mouse 3T3 fibroblasts expressing the human jejunal NK2 receptor) and NK-3 receptor affinity was evaluated in freshly collected guinea pig cerebral cortex. Tissues or cells were homogenized with a Polytron in 15 volumes of 50 mM Tris-HCl buffer (pH 7.4, 4°C) and centrifuged. The pellet was resuspended in Tris-HCl buffer and was centrifuged; the pellet was washed twice by resuspension. The final pellet was resuspended at a concentration of 40 mg/ml for tissues (guinea pig lung and cerebral cortex) and 20 mg/ml for cells in incubation buffer and remained at room temperature for at least 15 min prior to use. Receptor binding was initiated by addition of 250 µl membrane preparation in duplicate to 0.1 nM of the following radioligands: ^125I-Bolton Hunter Lys-3 labeled substance P; ^125iodohistidyl-1-neurokinin A; and ^125I-Bolton Hunter labeled Lys-4 eledoisin in a final volume of 500 µl of buffer containing 50 mM Tris-HCl (pH 7.4 at room temperature), 0.1% bovine serum albumin, 2 mM MnCl2, 40 µg/ml bacitracin, 4 µg/ml leupeptin and chymostatin, 1 µM thiorphan and various doses of the putative tachykinin antagonists. Incubations were performed at room temperature for 90 min (NK1 receptor assays) or 2 hr (NK2 and NK3 receptor assays); binding was terminated by addition of 50 mM Tris-HCl buffer (pH 7.4, 4°C) and filtration under vacuum through GF/B filters presoaked with 0.1% polyethyleneimine (NK1 receptor assays) or 0.5% bovine serum albumin (NK2 and NK3 receptor assays). Filter bound radioactivity was quantitated in a gamma counter. Nonspecific binding was defined as binding in the presence of 1 µM substance P, neurokinin A, or eledoisin. Specific binding was calculated by subtracting nonspecific binding from total binding. Competition of iodinated SP, NKA, or eledoisin binding by test compounds or standards was expressed as a percentage of this maximum competition. IC50 values (concentration required to inhibit 50% of receptor binding) were generated for each of the test compounds by nonlinear regression using an iterative curve fitting program (GraphPAD Inplot, San Diego, CA).

NK2 receptor = target: T2, NK2 receptor (Bos taurus, UniProt P05363); assay: Antagonism of NK2 receptor mediated (NKA-induced) phosphatidylinositol turnover in SKLKB82#3 cells; type: cell-based
T2 construct: expressed in transfected cells; host or cells: SKLKB82#3 cells
T2 sequence (P05363 1-384): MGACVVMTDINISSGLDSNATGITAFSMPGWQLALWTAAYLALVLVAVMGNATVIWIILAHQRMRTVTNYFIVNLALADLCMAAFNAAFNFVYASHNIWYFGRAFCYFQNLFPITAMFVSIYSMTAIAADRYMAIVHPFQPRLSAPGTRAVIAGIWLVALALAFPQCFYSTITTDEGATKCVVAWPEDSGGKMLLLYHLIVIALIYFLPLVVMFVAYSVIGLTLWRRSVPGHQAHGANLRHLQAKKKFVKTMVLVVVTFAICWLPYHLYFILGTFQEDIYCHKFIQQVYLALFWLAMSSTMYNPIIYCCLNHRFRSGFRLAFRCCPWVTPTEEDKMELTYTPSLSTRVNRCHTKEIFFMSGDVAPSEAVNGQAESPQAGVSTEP
Procedure: Tachykinin-mediated inositol phosphate accumulation was measured in UCll or SKLKB82#3 cells in the presence and absence of NK1 or NK2 receptor antagonists, respectively. Tissues were incubated in Krebs-Henseleit buffer at 37°C with 95% O2-5% CO2 gassing. Tissues were then incubated with fresh buffer containing 100 µCi of myo-[2-^3H(N)] inositol at 37°C for 60 min with gentle gassing. After washing twice at room temperature in 5 ml buffer containing 10 mM LiCl, tissues were incubated for 30 min at room temperature with a buffer change at 15 min. Buffer was removed and Krebs-Henseleit buffer (containing 40 µg/ml bacitracin, 4 µg/ml each of leupeptin and chymostatin, 0.1% bovine serum albumin and 10 mM each of thiorphan and LiCl) added. After 15 min, SP was added to UCll cells or NKA to SKLKB82#3 cells at various concentrations to start the reaction. After incubation for 60 min at room temperature the reaction was terminated by addition of 930 µl chloroform: methanol (1:2 by volume) to each tube, followed by 310 µl chloroform and 310 µl doubly distilled water. Samples were vortexed, centrifuged, and 0.9 ml of the aqueous (top) phase removed and added to 2 ml ddH2O. The mixture was vortexed and loaded onto a 50% Bio-Rad AG 1-X8 (formate form, 100-200 mesh) exchange column (Bio-Rad Laboratories, Hercules, CA). The columns were washed, in order, with: 1) 10 ml doubly distilled water, 2) 5 ml of 5 mM disodium tetraborate/60 mM sodium formate, and 3) 5 ml of 1 M ammonium formate/0.1 M formic acid. The third elution was collected and 1 ml counted in 7 ml scintillation fluid. A 50 µl aliquot of the organic (bottom) phase was removed, dried in a scintillation vial and counted in 7 ml scintillation fluid.
The ratio of DPM in the aqueous phase aliquot (total inositol phosphates) to the DPM in the 50 µl organic phase aliquot (total [^3H]inositol incorporated) was calculated for each sample. Data are expressed as a percent of agonist-induced accumulation of [^3H]-inositol phosphates over basal levels. The ratios in the presence of test compound and/or standards were compared to the ratios for control samples (i.e. no stimulating agonist). Dose-response graphs were constructed and the abilities of the test compounds to inhibit tachykinin-induced phosphatidylinositol turnover determined with the aid of a computer program. […] Data is expressed as percent stimulation of total inositol phosphate accumulation over basal levels and normalized to the maximum response produced by SP. […] Schild analysis is performed using dose response curves (such as those presented in Figures 1a and 1b) to obtain a value indicative of the strength of a competitive antagonist and is expressed as the pA2, which is the negative logarithm of the molar concentration of antagonist which reduces the effect of a dose of agonist to one-half of that expected at the dose of agonist. […]
Values are mean (95% confidence limits) derived from Schild analysis of 2-3 experiments per compound per receptor.

[1] = Schild analysis, NKA in SKLKB82#3 cells, mean (95% confidence limits), 2-3 experiments

SMILES	affinity for NK3 receptors (NK-3 receptor; result in words)	antagonism of the receptor mediated NKA induced PI turnover (NK2 receptor; SKLKB82#3 cells, Figure 1b, result in words)	NK-2 RECEPTOR -SLOPE (NK2 receptor; [1])	Kb (NK2 receptor; Schild analysis, NKA in SKLKB82#3 cells, mean (95% confidence limits), 2-3 experiments, read-out: NK-2 RECEPTOR pA2 (converted)) [nM]	IC50 (NK-3 receptor) [nM]	Kb (NK2 receptor) [nM]
COc1cc(C(=O)N2CCC(CCN3CCC(C(N)=O)(c4ccccc4)CC3)(c3ccc(Cl)c(Cl)c3)C2)cc(OC)c1OC (stereo not shown) [Example 3, 1-[2-[3-(3,4-dichloro-phenyl)-1-(3,4,5-trimethoxy-benzoyl)-pyrrolidin-3-yl]-ethyl]-4-phenyl-piperidine-4-carboxylic acid amide]	high affinity	dose related antagonism				
COc1cccc(OC)c1C(=O)N1CCC(CCN2CCC(C(N)=O)(c3ccccc3)CC2)(c2ccc(Cl)c(Cl)c2)C1 (racemic) [Example 5A, 1-[2-[3-(3,4-dichloro-phenyl-3-yl)-1-(2,6-dimethoxy-benzoyl)-pyrrolidin-3-yl]-ethyl]-4-phenyl-piperidine-4-carboxylic acid amide hydrochloride]			1.11 (0.99-1.23)	44.7		
COc1cc(C(=O)N2CCC(CCN3CCC(C(N)=O)(c4ccccc4)CC3)(c3ccc(Cl)c(Cl)c3)C2)cc(OC)c1OC (racemic) [Example 3A, 1-[2-[3-(3,4-dichloro-phenyl-3-yl)-1-(3,4,5-trimethoxy-benzoyl)-pyrrolidin-3-yl]-ethyl] -4-phenyl-piperidine-4-carboxylic acid amide hydrochloride]			0.73 (0.49-0.97)		54.2	1.78
